Calls of active or inactive are those of the source. The calls are words filed in the database; no cut-off is given here.
What was measured:
PBMC [1] = assay: Cytotoxicity in human PBMC cells at 100 uM after 48 hrs; format: cell-based
PBMC [2] = assay: Immunostimulatory activity in human PBMC assessed as reduction in cell proliferation at 100 uM after 48 hrs by [3H]thymidine incorporation assay relative to control; format: functional, cell-based
PBMC [3] = assay: Immunostimulatory activity in human PBMC assessed as cell activation at 10 uM after 48 hrs by [3H]thymidine incorporation assay relative to control; format: functional, cell-based

Structure (SMILES) | Activity (PBMC [1]) | Activity (PBMC [2]) | Activity (PBMC [3])
CCCCCCCC[C@@H](O)[C@H](O)/C=C/C(O)CCCCC(=O)O (relative stereo) | Toxic | inactive | 
CCCCCCCC[C@H](O)[C@H](O)/C=C/C(O)CCCCC(=O)O (relative stereo) | Toxic | inactive | Active
CCCCCCCC[C@H](O)[C@@H](O)[C@H](O)/C=C\CCCCC(=O)O (relative stereo) | Toxic | inactive | 
CC/C=C\C/C=C\[C@@H](O)[C@H](O)[C@@H](O)CCCCCCCC(=O)O (relative stereo) | Toxic | inactive | 
